Assay results published in the supplement of paper PMC11061612.

How the values were obtained:
Assay in all cases: combination Emax (second highest fraction inhibited in the dose matrix, 72 h); higher = more inhibition; extreme values may be limits of the assay
[1] = system: MDA-MB-453 (Breast Carcinoma)
Method in brief: (§1)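 After 24 hours at 37°C and 5% CO2 in 1536-well plates, cells in DMEM/F12 or RPMI plus 10% FBS received two-drug dose matrices for 72 hours. Viability came from CellTiter-Glo 2.0 luminescence and was scaled as inhibition, anchored at 0 by vehicle wells and at 1 by blank wells. Combination Emax is taken as the second-highest inhibition in the matrix, and Bliss excess as the observed combination effect less EA + EB − EA·EB, with EA and EB the single-agent effects.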

[2] = system: NCI-H650 (Lung Adenocarcinoma)
Method in brief: as §1

[3] = system: ME-180 (Cervical Carcinoma)
Method in brief: as §1

[4] = system: KGN (Other Solid Carcinomas)
Method in brief: as §1

[5] = system: MV-4-11 (Acute Myeloid Leukemia)
Method in brief: as §1

COLO-679 (Melanoma) = system: COLO-679 (Melanoma)
Method in brief: as §1

EW-1 (Ewing's Sarcoma) = system: EW-1 (Ewing's Sarcoma)
Method in brief: as §1

[6] = system: KMRC-1 (Kidney Carcinoma)
Method in brief: as §1

Hey (Ovarian Carcinoma) = system: Hey (Ovarian Carcinoma)
Method in brief: as §1

[7] = system: Mo-T (Other Blood Carcinomas)
Method in brief: as §1

[8] = system: ALL-SIL (T-Lymphoblastic Leukemia)
Method in brief: as §1

[9] = system: NCI-H1993 (Lung Adenocarcinoma)
Method in brief: as §1

[10] = system: KOPN-8 (B-Lymphoblastic Leukemia)
Method in brief: as §1

[11] = system: A4-Fuk (B-Lymphoblastic Leukemia)
Method in brief: as §1

[12] = system: HCC2998 (Colorectal Carcinoma)
Method in brief: as §1

[13] = system: OACM5-1 (Esophageal Adenocarcinoma)
Method in brief: as §1

[14] = system: CADO-ES1 (Ewing's Sarcoma)
Method in brief: as §1

[15] = system: MOLT-4 (T-Lymphoblastic Leukemia)
Method in brief: as §1

[16] = system: HAL-01 (B-Lymphoblastic Leukemia)
Method in brief: as §1

[17] = system: ML-2 (Acute Myeloid Leukemia)
Method in brief: as §1

SMILES | combination Emax [1] | combination Emax [2] | combination Emax [3] | combination Emax [4] | combination Emax [5] | combination Emax (COLO-679 (Melanoma)) | combination Emax (EW-1 (Ewing's Sarcoma)) | combination Emax [6] | combination Emax (Hey (Ovarian Carcinoma)) | combination Emax [7] | combination Emax [8] | combination Emax [9] | combination Emax [10] | combination Emax [11] | combination Emax [12] | combination Emax [13] | combination Emax [14] | combination Emax [15] | combination Emax [16] | combination Emax [17]
COc1cccc(OCCCN)c1-c1cc(Nc2cnc(C#N)cn2)n[nH]1 [Prexasertib] + CN(C)CCCOc1ccc(-c2ccc3ncc4c(c3c2)n(C2CCOCC2)c(=O)n4C)cn1 [AZD0156] (first compound max 1 µM, 7x7, partner max 1 µM) | 0.926 | 0.671 | 0.324 | 0.753 | 0.998 | 0.871 | 0.958 | 0.558 | 0.82 | 0.392 | 0.958 | 0.826 | 0.947 | 0.885 | 0.969 | 0.624 | 0.956 | 1 | 1 | 1
NC1(C(=O)N[C@@H](CCO)c2ccc(Cl)cc2)CCN(c2ncnc3[nH]ccc23)CC1 [Capivasertib] + CC(C)n1c(=O)n(C)c2cnc3cc(F)c(-c4ccc(OCCCN5CCCCC5)nc4)cc3c21 [AZD1390] (first compound max 10 µM, 7x7, partner max 0.3 µM) | 0.56 | 0.268 | 0.636 | 0.414 | 0.722 | 0.225 | 0.352 | 0.435 | 0.225 | 0.239 | 0.389 | 0.595 | 0.627 | 0.786 | 0.398 | 0.71 | 0.0981 | 0.682 | 0.492 | 0.71
Cn1cnc2c(F)c(Nc3ccc(Br)cc3Cl)c(C(=O)NOCCO)cc21 [Selumetinib] + C=CCn1c(=O)c2cnc(Nc3ccc(N4CCN(C)CC4)cc3)nc2n1-c1cccc(C(C)(C)O)n1 [AZD1775] (first compound max 10 µM, partner max 1 µM) | 0.206 | 0.693 | 0.478 | 0.695 | 0.915 | 0.823 | 0.883 | 0.203 | 0.719 | 0.482 | 0.881 | 0.83 | 0.995 | 0.948 | 0.806 | 0.642 | 0.294 | 1 | 0.876 | 0.994
Cc1c2c(nn1C)CSCc1cc(n(C)n1)CSc1cc(c3ccccc3c1)OCCCc1c(C(=O)O)n(C)c3c-2c(Cl)ccc13 [AZD5991] + C[C@@H](Nc1cc(F)cc(F)c1)c1cc(C(=O)N(C)C)cc2c(=O)cc(N3CCOCC3)oc12 [AZD8186] (first compound max 1 µM, 7x7, partner max 3 µM) | 0.355 | 0.22 | 0.217 | 0.443 | 1 | 0.332 | 0.367 | 0.639 | 0.258 | 0.319 | 0.968 | 0.455 | 0.915 | 1 | 0.918 | 0.94 | 0.918 | 0.526 | 0.734 | 1
CC1(C)CCC(CN2CCN(c3ccc(C(=O)NS(=O)(=O)c4ccc(NCC5CCOCC5)c([N+](=O)[O-])c4)c(Oc4cnc5[nH]ccc5c4)c3)CC2)=C(c2ccc(Cl)cc2)C1 [Venetoclax] + C[C@@H]1COCCN1C2=NC(=NC(=C2)C3(CC3)[S@](=N)(=O)C)C4=C5C=CNC5=NC=C4 [AZD6738] (first compound max 1 µM, 7x7, partner max 10 µM) | 0.761 | 0.276 | 0.571 | 0.751 | 1 | 0.639 | 0.944 | 0.486 | 0.774 | 0.735 | 1 | 0.582 | 1 | 0.775 | 0.779 | 0.678 | 0.952 | 1 | 1 | 1
C=CCn1c(=O)c2cnc(Nc3ccc(N4CCN(C)CC4)cc3)nc2n1-c1cccc(C(C)(C)O)n1 [AZD1775] + C[C@@H]1COCCN1C2=NC(=NC(=C2)C3(CC3)[S@](=N)(=O)C)C4=C5C=CNC5=NC=C4 [AZD6738] (first compound max 1 µM, partner max 10 µM) | 0.891 | 0.329 | 0.802 | 0.922 | 0.991 | 0.723 | 0.935 | 0.669 | 0.809 | 0.61 | 0.992 | 0.689 | 0.965 | 0.875 | 0.938 | 0.778 | 0.901 | 1 | 1 | 1
CC(=O)c1c(C)c2cnc(Nc3ccc(N4CCNCC4)cn3)nc2n(C2CCCC2)c1=O [Palbociclib] + CC1(C)CCC(CN2CCN(c3ccc(C(=O)NS(=O)(=O)c4ccc(NCC5CCOCC5)c([N+](=O)[O-])c4)c(Oc4cnc5[nH]ccc5c4)c3)CC2)=C(c2ccc(Cl)cc2)C1 [Venetoclax] (first compound max 10 µM, 7x7, partner max 1 µM) | 0.275 | 0.172 | 0.0846 | 0.507 | 1 | 0.0736 | 0.528 | 0.162 | 0.355 | 0.297 | 0.76 | 0.403 | 0.958 | 0.552 | 0.416 | 0.479 | 0.678 | 0.629 | 0.99 | 0.949
C=CCn1c(=O)c2cnc(Nc3ccc(N4CCN(C)CC4)cc3)nc2n1-c1cccc(C(C)(C)O)n1 [AZD1775] + O=C(c1cc(Cc2n[nH]c(=O)c3ccccc23)ccc1F)N1CCN(C(=O)C2CC2)CC1 [Olaparib] (first compound max 1 µM, partner max 10 µM) | 0.411 | 0.316 | 0.457 | 0.745 | 0.978 | 0.491 | 0.907 | 0.279 | 0.552 | 0.456 | 0.899 | 0.604 | 0.904 | 0.875 | 0.448 | 0.353 | 0.636 | 1 | 0.935 | 1
CC1(C)CCC(CN2CCN(c3ccc(C(=O)NS(=O)(=O)c4ccc(NCC5CCOCC5)c([N+](=O)[O-])c4)c(Oc4cnc5[nH]ccc5c4)c3)CC2)=C(c2ccc(Cl)cc2)C1 [Venetoclax] + Cn1cnc2c(F)c(Nc3ccc(Br)cc3Cl)c(C(=O)NOCCO)cc21 [Selumetinib] (first compound max 1 µM, 7x7, partner max 3 µM) | 0.15 | 0.239 | 0.256 | 0.246 | 1 | 0.737 | 0.238 | 0.135 | 0.55 | 0.618 | 0.679 | 0.436 | 0.971 | 0.712 | 0.683 | 0.336 | 0.632 | 0.451 | 0.97 | 1
COc1nnc2ccc(N3CCC(c4ccc(OCCN5CCN(C)C(=O)[C@H]5C)cc4)CC3)nn12 [AZD5153] + C[C@@H]1COCCN1C2=NC(=NC(=C2)C3(CC3)[S@](=N)(=O)C)C4=C5C=CNC5=NC=C4 [AZD6738] (first compound max 1 µM, 7x7, partner max 10 µM) | 0.837 | 0.51 | 0.696 | 0.822 | 1 | 0.718 | 0.953 | 0.456 | 0.796 | 0.746 | 1 | 0.738 | 1 | 0.882 | 0.926 | 0.886 | 0.88 | 0.999 | 0.965 | 1
CC1(C)CCC(CN2CCN(c3ccc(C(=O)NS(=O)(=O)c4ccc(NCC5CCOCC5)c([N+](=O)[O-])c4)c(Oc4cnc5[nH]ccc5c4)c3)CC2)=C(c2ccc(Cl)cc2)C1 [Venetoclax] + C=CCn1c(=O)c2cnc(Nc3ccc(N4CCN(C)CC4)cc3)nc2n1-c1cccc(C(C)(C)O)n1 [AZD1775] (first compound max 1 µM, partner max 1 µM) | 0.769 | 0.393 | 0.599 | 0.68 | 1 | 0.413 | 0.947 | 0.394 | 0.667 | 0.629 | 1 | 0.629 | 1 | 0.883 | 0.599 | 0.558 | 0.68 | 1 | 1 | 1
COc1nnc2ccc(N3CCC(c4ccc(OCCN5CCN(C)C(=O)[C@H]5C)cc4)CC3)nn12 [AZD5153] + Cn1cnc2c(F)c(Nc3ccc(Br)cc3Cl)c(C(=O)NOCCO)cc21 [Selumetinib] (first compound max 1 µM, 7x7, partner max 10 µM) | 0.614 | 0.656 | 0.592 | 0.729 | 1 | 0.884 | 0.618 | 0.346 | 0.726 | 0.659 | 0.778 | 0.915 | 1 | 0.934 | 0.95 | 0.663 | 0.444 | 0.162 | 0.849 | 1
